Measurements taken from the supplement of paper PMC13207355.

How the values were obtained:
Conditions in all cases: exposure time: 72 h
E13 [1] = patient-derived glioblastoma stem cells of classical subtype; test: surviving fraction (nuclei count normalised to DMSO); higher = more cells surviving (less toxic)
E21 [2] = patient-derived glioblastoma stem cells of mesenchymal subtype; test: as above
E28 [3] = patient-derived glioblastoma stem cells of classical subtype; test: as above
E31 [4] = patient-derived glioblastoma stem cells of proneural subtype; test: as above
E34 [5] = patient-derived glioblastoma stem cells of proneural subtype; test: as above
E57 [6] = patient-derived glioblastoma stem cells of mesenchymal subtype; test: as above
FT3469 [7] = normal neural stem cell line; test: as above
E13 [8] = test: phenotypic distance (Euclidean, principal components) from DMSO controls (arbitrary units); higher = stronger morphological change
E21 [9] = test: as above
E28 [10] = test: as above
E31 [11] = test: as above
E34 [12] = test: as above
E57 [13] = test: as above
FT3469 [14] = test: as above
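Throughout, for phenotypic distance (Euclidean, principal components) from DMSO controls: cell Painting imaging in 384-well plates, CellProfiler features reduced to at least 20 principal components, Euclidean distance versus same-plate DMSO vehicle wells (0.1% v/v), median over six images per well.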
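Throughout, for surviving fraction (nuclei count normalised to DMSO): nuclei counted by high-content imaging of Hoechst-stained cells in laminin-coated 384-well plates, relative to 0.1% DMSO vehicle wells, with staurosporine as cell-death control.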

N=C(NCCCCCCNC(=N)NC(=N)Nc1ccc(Cl)cc1)NC(=N)Nc1ccc(Cl)cc1 [Chlorhexidine]
Conditions | phenotypic distance | surviving fraction
E13 [1], 4.1 nM | – | 1.03
E13 [1], 12.3 nM | – | 1.05
E13 [1], 37 nM | – | 0.948
E13 [1], 111.1 nM | – | 1.01
E13 [1], 333.3 nM | – | 0.969
E13 [1], 1000 nM | – | 0.943
E13 [1], 3000 nM | – | 0.409
E13 [8], 4.1 nM | 0.429 | –
E13 [8], 12.3 nM | 1.39 | –
E13 [8], 37 nM | 0.262 | –
E13 [8], 111.1 nM | 2.5 | –
E13 [8], 333.3 nM | 0.491 | –
E13 [8], 1000 nM | 0.464 | –
E13 [8], 3000 nM | 3.49 | –
E21 [2], 4.1 nM | – | 0.973
E21 [2], 12.3 nM | – | 1.01
E21 [2], 37 nM | – | 0.964
E21 [2], 111.1 nM | – | 0.946
E21 [2], 333.3 nM | – | 0.941
E21 [2], 1000 nM | – | 0.899
E21 [2], 3000 nM | – | 0.259
E21 [9], 4.1 nM | 0.562 | –
E21 [9], 12.3 nM | 0.828 | –
E21 [9], 37 nM | 0.696 | –
E21 [9], 111.1 nM | 0.95 | –
E21 [9], 333.3 nM | 0.783 | –
E21 [9], 1000 nM | 0.943 | –
E21 [9], 3000 nM | 6.35 | –
E28 [3], 4.1 nM | – | 1.05
E28 [3], 12.3 nM | – | 1.13
E28 [3], 37 nM | – | 1.1
E28 [3], 111.1 nM | – | 1.16
E28 [3], 333.3 nM | – | 1.11
E28 [3], 1000 nM | – | 0.694
E28 [3], 3000 nM | – | 0.289
E28 [10], 4.1 nM | 0.971 | –
E28 [10], 12.3 nM | 0.644 | –
E28 [10], 37 nM | 0.865 | –
E28 [10], 111.1 nM | 0.807 | –
E28 [10], 333.3 nM | 0.749 | –
E28 [10], 1000 nM | 1.41 | –
E28 [10], 3000 nM | 3.14 | –
E31 [4], 4.1 nM | – | 0.921
E31 [4], 12.3 nM | – | 0.969
E31 [4], 37 nM | – | 1.07
E31 [4], 111.1 nM | – | 1.04
E31 [4], 333.3 nM | – | 0.889
E31 [4], 1000 nM | – | 0.765
E31 [4], 3000 nM | – | 0.401
E31 [11], 4.1 nM | 0.524 | –
E31 [11], 12.3 nM | 0.525 | –
E31 [11], 37 nM | 0.809 | –
E31 [11], 111.1 nM | 0.944 | –
E31 [11], 333.3 nM | 1.22 | –
E31 [11], 1000 nM | 2.29 | –
E31 [11], 3000 nM | 2.76 | –
E34 [5], 4.1 nM | – | 0.914
E34 [5], 12.3 nM | – | 0.993
E34 [5], 37 nM | – | 0.955
E34 [5], 111.1 nM | – | 0.752
E34 [5], 333.3 nM | – | 1.03
E34 [5], 1000 nM | – | 0.892
E34 [5], 3000 nM | – | 0.659
E34 [12], 4.1 nM | 0.526 | –
E34 [12], 12.3 nM | 0.799 | –
E34 [12], 37 nM | 0.756 | –
E34 [12], 111.1 nM | 0.826 | –
E34 [12], 333.3 nM | 0.445 | –
E34 [12], 1000 nM | 0.747 | –
E34 [12], 3000 nM | 3.01 | –
E57 [6], 4.1 nM | – | 0.972
E57 [6], 12.3 nM | – | 1.03
E57 [6], 37 nM | – | 0.962
E57 [6], 111.1 nM | – | 1.03
E57 [6], 333.3 nM | – | 0.967
E57 [6], 1000 nM | – | 0.838
E57 [6], 3000 nM | – | 0.307
E57 [13], 4.1 nM | 0.332 | –
E57 [13], 12.3 nM | 0.353 | –
E57 [13], 37 nM | 0.497 | –
E57 [13], 111.1 nM | 0.85 | –
E57 [13], 333.3 nM | 0.64 | –
E57 [13], 1000 nM | 1.98 | –
E57 [13], 3000 nM | 4.85 | –
FT3469 [7], 4.1 nM | – | 1.05
FT3469 [7], 12.3 nM | – | 0.955
FT3469 [7], 37 nM | – | 1.1
FT3469 [7], 111.1 nM | – | 0.981
FT3469 [7], 333.3 nM | – | 0.883
FT3469 [7], 1000 nM | – | 0.806
FT3469 [7], 3000 nM | – | 0.537
FT3469 [14], 4.1 nM | 1.53 | –
FT3469 [14], 12.3 nM | 0.951 | –
FT3469 [14], 37 nM | 0.654 | –
FT3469 [14], 111.1 nM | 0.806 | –
FT3469 [14], 333.3 nM | 0.554 | –
FT3469 [14], 1000 nM | 1.03 | –
FT3469 [14], 3000 nM | 2.68 | –
